# Target: T1, WT TALK-2 channels (Homo sapiens, UniProt Q96T54)
# T1 sequence (Q96T54 1-332): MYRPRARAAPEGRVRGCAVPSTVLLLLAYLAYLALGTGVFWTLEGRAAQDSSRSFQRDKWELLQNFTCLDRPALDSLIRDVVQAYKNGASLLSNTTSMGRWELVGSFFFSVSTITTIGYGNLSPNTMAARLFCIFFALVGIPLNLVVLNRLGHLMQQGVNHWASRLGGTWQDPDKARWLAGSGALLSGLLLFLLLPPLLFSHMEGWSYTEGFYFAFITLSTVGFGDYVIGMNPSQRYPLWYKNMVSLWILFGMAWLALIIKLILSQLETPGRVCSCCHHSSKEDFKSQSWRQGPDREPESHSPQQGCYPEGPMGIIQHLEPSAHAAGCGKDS
# Assay: Conductance-voltage (G-V) curves from tail currents, V1/2 (intracellular Rb+)
# Format: cell-based
# Parameters: expressed in transfected cells; host or cells: Xenopus laevis oocytes (cRNA injection), excised inside-out patches
# Conditions: for Normalized current: TALK-2 WT + 1 mM TPenA
# Text: The voltage-dependent activation mechanism of the SF gate in K2P channels allows to estimate the electrical work (ΔG = zFΔV1/2) required for pore opening by fitting the G–V curve to a Boltzmann equation. […] The open state represents the situation of both gates being simultaneously open but voltage can only exert force on the SF gate that functions as voltage sensor. […] We further tested whether mutations that open the lower gate (L262A and L264A) would affect the extracellular pH sensitivity. […] We further explored this concept of allosteric coupling using the mutations identified in the functional alanine screen of TM2 and TM4. […]
# Conductance-voltage (G–V) relationships were determined from tail currents recorded at a holding potential (VH) of −80 mV after 300 ms depolarizing steps as indicated in the respective figure legend. Data were analyzed with a single Boltzmann fit following Eq. 6:6 GV=Imax/1+e^V−V1/2/slope+Ibase where V1/2 represents the voltage of half-maximal activation, s is the slope factor and Imax and Ibase represent the upper and lower asymptotes. Under appropriate experimental conditions, you can use slope to calculate the valence (charge) of the ion moving across the channel. Slope equals R * T/ z * F where R is the universal gas constant, T is temperature in K, F is the Faraday constant, and z is the valence.
smiles,measurement,setting,value
"CCCCC[N+](CCCCC)(CCCCC)CCCCC [TPenA, Tetra-pentyl-ammonium chloride]",leftward shift of the G-V curve,"1 mM TPenA, intracellular Rb+",46.1 ± 4.9 mV
same,Normalized current,Voltage 0.000,0.197
same,Normalized current,Voltage 0.005,0.242
same,Normalized current,Voltage 0.010,0.308
same,Normalized current,Voltage 0.015,0.381
same,Normalized current,Voltage 0.020,0.454
same,Normalized current,Voltage 0.025,0.532
same,Normalized current,Voltage 0.030,0.607
same,Normalized current,Voltage 0.035,0.671
same,Normalized current,Voltage 0.040,0.728
same,Normalized current,Voltage 0.045,0.768
same,Normalized current,Voltage 0.050,0.808
same,Normalized current,Voltage 0.055,0.838
same,Normalized current,Voltage 0.060,0.865
same,Normalized current,Voltage 0.065,0.890
same,Normalized current,Voltage 0.070,0.906
same,Normalized current,Voltage 0.075,0.928
same,Normalized current,Voltage 0.080,0.937
same,Normalized current,Voltage 0.085,0.948
same,Normalized current,Voltage 0.090,0.958
same,Normalized current,Voltage 0.095,0.967
same,Normalized current,Voltage 0.100,0.967
same,Normalized current,Voltage 0.105,0.966
same,Normalized current,Voltage 0.110,0.976
same,Normalized current,Voltage 0.115,0.977
same,Normalized current,Voltage 0.120,0.974
same,Normalized current,Voltage 0.125,0.985
same,Normalized current,Voltage 0.130,0.971
same,Normalized current,Voltage 0.135,0.973
same,Normalized current,Voltage 0.140,0.960
same,Normalized current,Voltage 0.145,0.967
same,Normalized current,Voltage 0.150,0.968
same,Normalized current,Voltage 0.155,0.943
same,Normalized current,Voltage 0.160,0.968
same,Normalized current,Voltage -0.005,0.160
same,Normalized current,Voltage -0.010,0.136
same,Normalized current,Voltage -0.015,0.121
same,Normalized current,Voltage -0.020,0.109
same,Normalized current,Voltage -0.025,0.102
same,Normalized current,Voltage -0.030,0.098
same,Normalized current,Voltage -0.035,0.094
same,Normalized current,Voltage -0.040,0.089
same,Normalized current,Voltage -0.045,0.087
same,Normalized current,Voltage -0.050,0.085
same,Normalized current,Voltage -0.055,0.083
same,Normalized current,Voltage -0.060,0.079
same,Normalized current,Voltage -0.065,0.079
same,Normalized current,Voltage -0.070,0.079
same,Normalized current,Voltage -0.075,0.077
same,Normalized current,Voltage -0.080,0.077
same,Normalized current,Voltage -0.085,0.078
same,Normalized current,Voltage -0.090,0.077
same,Normalized current,Voltage -0.095,0.078
same,Normalized current,Voltage -0.100,0.076
same,Normalized current,Voltage -0.105,0.077
same,Normalized current,Voltage -0.110,0.079
same,Normalized current,Voltage -0.115,0.077
same,Normalized current,Voltage -0.120,0.077
same,V1/2,"TALK-2 WT, 1 mM ligand",25.5 mV
